From patent US8569372B2, “Method for preventing or treating a disease, disorder or condition induced by retina ischemia” (priority 2011, dated 2013)

Key:
VEGF mRNA = test: Real-time PCR of retinal mRNA after ischaemia/reperfusion: VEGF; assay type: in vivo, Wistar rats; details: 100 μM SAC pre-treatment, 24 hours after I/R; control 0.36±0.07, vehicle 1.10±0.20; n=6
Procedure: The rats (200-250 g) were anaesthetized and placed in a stereotaxic frame. The anterior chamber of one eye was cannulated with a 30-gauge needle connected to a 0.9% saline reservoir; this caused a high IOP (HIOP) of 120 mmHg for 60 minutes. Eye fundus whitening and a low ERG response confirmed induction of an ischaemic insult. A sham procedure was carried out on the controls. Drug administration involved the pre-administration (15-minute before 60-minute HIOP induced retinal ischaemia) of SAC (25, 50, 100 μM) or vehicle (saline; control). The ischemic eye of each test rat was treated with or without a single intravitreous injection of 5 μl of the test compound. […] The levels of Thy-1, HIF-1 Alpha, VEGF and MMP-9 mRNAs present in the retinas were determined using a real-time PCR technique. […] Relative quantification (a comparative method) was performed using the house keeping gene Beta-actin as the internal standard. This process allows the normalized quantification of the mRNA target (Ct) and takes into account the differences in the amount of total RNA added to each reaction (ΔCt). The relative HIF-1 Alpha/VEGF/MMP-9 expression changes were calculated as fold changes relative to the control with respect to the calibrator (ΔΔCt), which was represented by the control retina. […] The data obtained for each treatment were pooled, and a total percentage change relative to the control was calculated. […]

[1] = test system: ischaemic retina (HIOP induced retinal ischaemia/reperfusion); test: Flash ERG b-wave after high IOP induced retinal ischaemia/reperfusion, intravitreous pre-treatment; assay type: in vivo, Wistar rats; details: for ERG b-wave ratio (ischaemic eye vs. fellow normal eye): n=6; for pre-ischaemia b-wave ratio baseline (day 0): day 0 baseline
Procedure: All investigations involving the use of animals conformed to the Association for Research in Vision and Ophthalmology Statement for the Use of Animals in Ophthalmology and Vision Research and were approved by the Institutional Review Board of Cheng Hsin General Hospital (Taipei, Taiwan). The six-week-old Wistar rats were kept in an animal house where the humidity was 40-60% and the temperature 19-23° C. They were kept on a 12-hour light/dark cycle with 12 to 15 air changes/hour. The animals were provided with food and water ad libitum.
The rats (200-250 g) were anaesthetized and placed in a stereotaxic frame. The anterior chamber of one eye was cannulated with a 30-gauge needle connected to a 0.9% saline reservoir; this caused a high IOP (HIOP) of 120 mmHg for 60 minutes. Eye fundus whitening and a low ERG response confirmed induction of an ischaemic insult. A sham procedure was carried out on the controls.
Drug administration involved the pre-administration (15-minute before 60-minute HIOP induced retinal ischaemia) of SAC (25, 50, 100 μM) or vehicle (saline; control). The ischemic eye of each test rat was treated with or without a single intravitreous injection of 5 μl of the test compound. In addition, SAC (100 μM) was administered to the non-ischaemic eye (normal) to see whether SAC has any adverse effects. In both cases, the paired normal eye was untreated.
Flash ERG recordings were performed on all rats before retinal ischaemia (day 0), as well as at 1, 3, 5, and 7 days after ischaemia and treatment with or without the defined chemicals. The animals were dark adapted and anaesthetized to do this. A strobe was placed 2 cm in front of the animal to provide a stimulus of 0.5 Hz. Fifteen consecutive responses were recorded at two-second intervals and at 10 kHz; the responses were amplified and averaged using an amplifier P511/regulated power supply RPS 107/stimulator PS22 (Grass-Telefactor; Astro-Med Inc., West Warwick, R.I., USA). For comparative purposes, the b-wave ratio, namely the b-wave amplitude of the ischaemic/sham-operation eye or the untreated/SAC-treated non-ischaemic (normal) eye as compared with that of the contralateral normal eye, was calculated.

C=CCSC[C@H](N)C(=O)O [SAC, S-allyl L-cysteine]
VEGF mRNA ratio in the retina (VEGF mRNA): 0.50±0.06
ERG b-wave ratio (ischaemic eye vs. fellow normal eye) ([1]; 25 μM SAC, day 1 after I/R, vehicle 0.19±0.03): 0.47±0.10
ERG b-wave ratio (ischaemic eye vs. fellow normal eye) ([1]; 25 μM SAC, day 3 after I/R, vehicle 0.18±0.05): 0.44±0.11
ERG b-wave ratio (ischaemic eye vs. fellow normal eye) ([1]; 25 μM SAC, day 5 after I/R, vehicle 0.24±0.05): 0.54±0.09
ERG b-wave ratio (ischaemic eye vs. fellow normal eye) ([1]; 25 μM SAC, day 7 after I/R, vehicle 0.18±0.02): 0.55±0.06
ERG b-wave ratio (ischaemic eye vs. fellow normal eye) ([1]; 50 μM SAC, day 1 after I/R, vehicle 0.19±0.03): 0.56±0.03
ERG b-wave ratio (ischaemic eye vs. fellow normal eye) ([1]; 50 μM SAC, day 3 after I/R, vehicle 0.18±0.05): 0.60±0.05
ERG b-wave ratio (ischaemic eye vs. fellow normal eye) ([1]; 50 μM SAC, day 5 after I/R, vehicle 0.24±0.05): 0.65±0.02
ERG b-wave ratio (ischaemic eye vs. fellow normal eye) ([1]; 50 μM SAC, day 7 after I/R, vehicle 0.18±0.02): 0.61±0.05
ERG b-wave amplitude ([1]; 100 μM SAC intravitreous pre-treatment, 1 day after I/R, sham control 0.35 mV, vehicle 0.08 mV): 0.24 mV
ERG b-wave amplitude, % of the control value ([1]; 100 μM SAC pre-treatment, 1 day after I/R, vehicle 22.86%): 68.57 % of the control value
ERG b-wave ratio (ischaemic eye vs. fellow normal eye) ([1]; 100 μM SAC, day 1 after I/R, vehicle 0.19±0.03): 0.64±0.04
ERG b-wave ratio (ischaemic eye vs. fellow normal eye) ([1]; 100 μM SAC, day 3 after I/R, vehicle 0.18±0.05): 0.79±0.03
ERG b-wave ratio (ischaemic eye vs. fellow normal eye) ([1]; 100 μM SAC, day 5 after I/R, vehicle 0.24±0.05): 0.84±0.03
ERG b-wave ratio (ischaemic eye vs. fellow normal eye) ([1]; 100 μM SAC, day 7 after I/R, vehicle 0.18±0.02): 0.84±0.04
pre-ischaemia b-wave ratio baseline (day 0) ([1]; group pre-treated with 25 μM SAC): 1.08±0.07
pre-ischaemia b-wave ratio baseline (day 0) ([1]; group pre-treated with 50 μM SAC): 0.98±0.04
pre-ischaemia b-wave ratio baseline (day 0) ([1]; group pre-treated with 100 μM SAC): 0.92±0.04
